According to ChEMBL document CHEMBL1649448, “Atorvastatin is a promising partner for antimalarial drugs in treatment of Plasmodium falciparum malaria” (Antimicrob Agents Chemother, 2009):

Columns and labels:
Format in all cases: functional, organism-based
[1] = system: Plasmodium falciparum; assay: Antimalarial activity against Plasmodium falciparum IMT 10336 assessed as incorporation of [3H]hypoxanthine after 48 hrs by scintillation counter
[2] = system: Plasmodium falciparum; assay: Antimalarial activity against Plasmodium falciparum IMT K2 assessed as incorporation of [3H]hypoxanthine after 48 hrs by scintillation counter
[3] = system: Plasmodium falciparum; assay: Antimalarial activity against Plasmodium falciparum D6 assessed as incorporation of [3H]hypoxanthine after 48 hrs by scintillation counter
[4] = system: Plasmodium falciparum; assay: Antimalarial activity against Plasmodium falciparum IMT 8425 assessed as incorporation of [3H]hypoxanthine after 48 hrs by scintillation counter
[5] = system: Plasmodium falciparum; assay: Antimalarial activity against Plasmodium falciparum HB3 assessed as incorporation of [3H]hypoxanthine after 48 hrs by scintillation counter
[6] = system: Plasmodium falciparum; assay: Antimalarial activity against Plasmodium falciparum IMT 10500 assessed as incorporation of [3H]hypoxanthine after 48 hrs by scintillation counter
[7] = system: Plasmodium falciparum; assay: Antimalarial activity against Plasmodium falciparum FCR3 assessed as incorporation of [3H]hypoxanthine after 48 hrs by scintillation counter
[8] = system: Plasmodium falciparum; assay: Antimalarial activity against Plasmodium falciparum FCM29 assessed as incorporation of [3H]hypoxanthine after 48 hrs by scintillation counter
[9] = system: Plasmodium falciparum; assay: Antimalarial activity against Plasmodium falciparum IMT Bres assessed as incorporation of [3H]hypoxanthine after 48 hrs by scintillation counter
[10] = system: Plasmodium falciparum; assay: Antimalarial activity against Plasmodium falciparum W2 assessed as incorporation of [3H]hypoxanthine after 48 hrs by scintillation counter
[11] = system: Plasmodium falciparum; assay: Antimalarial activity against Plasmodium falciparum IMT A4 assessed as incorporation of [3H]hypoxanthine after 48 hrs by scintillation counter
[12] = system: Plasmodium falciparum; assay: Antimalarial activity against Plasmodium falciparum IMT Vol assessed as incorporation of [3H]hypoxanthine after 48 hrs by scintillation counter
[13] = system: Plasmodium falciparum; assay: Antimalarial activity against Plasmodium falciparum IMT 16332 assessed as incorporation of [3H]hypoxanthine after 48 hrs by scintillation counter
[14] = system: Plasmodium falciparum; assay: Antimalarial activity against Plasmodium falciparum 3D7 assessed as incorporation of [3H]hypoxanthine after 48 hrs by scintillation counter
[15] = system: Plasmodium falciparum; assay: Antimalarial activity against Plasmodium falciparum IMT 9881 assessed as incorporation of [3H]hypoxanthine after 48 hrs by scintillation counter
[16] = system: Plasmodium falciparum; assay: Antimalarial activity against Plasmodium falciparum IMT K4 assessed as incorporation of [3H]hypoxanthine after 48 hrs by scintillation counter
[17] = system: Plasmodium falciparum; assay: Antimalarial activity against Plasmodium falciparum IMT 31 assessed as incorporation of [3H]hypoxanthine after 48 hrs by scintillation counter
[18] = system: Plasmodium falciparum; assay: Antimalarial activity against Plasmodium falciparum 106/1 assessed as incorporation of [3H]hypoxanthine after 48 hrs by scintillation counter
[19] = system: Plasmodium falciparum; assay: Antimalarial activity against Plasmodium falciparum IMT Guy assessed as incorporation of [3H]hypoxanthine after 48 hrs by scintillation counter
[20] = system: Plasmodium falciparum; assay: Antimalarial activity against Plasmodium falciparum IMT K14 assessed as incorporation of [3H]hypoxanthine after 48 hrs by scintillation counter
[21] = system: Plasmodium falciparum; assay: Antimalarial activity against Plasmodium falciparum PA assessed as incorporation of [3H]hypoxanthine after 48 hrs by scintillation counter
[22] = system: Plasmodium falciparum; assay: Antimalarial activity against Plasmodium falciparum IMT L1 assessed as incorporation of [3H]hypoxanthine after 48 hrs by scintillation counter
[23] = system: Plasmodium falciparum; assay: Antimalarial activity against Plasmodium falciparum IMT 10336 harboring Pfcrt Q271E mutant gene and Ppcrt I371R mutant gene assessed as incorporation of [3H]hypoxanthine after 48 hrs by scintillation counter
[24] = system: Plasmodium falciparum; assay: Antimalarial activity against Plasmodium falciparum FCR3 harboring Ppcrt M74I, N75E, K76T, A220S, Q271E, N326S and I356T mutant gene, Pmdr1 N86Y mutant gene and Pfmrp H191Y and S437A mutant gene assessed as incorporation of [3H]hypoxanthine after 48 hrs by scintillation counter
[25] = system: Plasmodium falciparum; assay: Antimalarial activity against Plasmodium falciparum IMT Bres harboring Ppcrt M74I, N75E, K76T, A220S, Q271E, N326S and I356T mutant gene, Pmdr1 N86Y mutant gene and Pfmrp H191Y and S437A mutant gene assessed as incorporation of [3H]hypoxanthine after 48 hrs by scintillation counter
[26] = system: Plasmodium falciparum; assay: Antimalarial activity against Plasmodium falciparum IMT Guy harboring Ppcrt K76T, A220S, N326D and I371R mutant gene, Pmdr1 T184FN, 1042D and D1246Y, mutant gene and Pfmrp H191Y and S437A mutant gene and Pfnhe-1 ms4760 microsatellite mutant assessed as incorporation of [3H]hypoxanthine after 48 hrs by scintillation counter
[27] = system: Plasmodium falciparum; assay: Antimalarial activity against Plasmodium falciparum HB3 harboring Ppcrt I371R mutant gene and Pfmdr1 Y184F mutant gene assessed as incorporation of [3H]hypoxanthine after 48 hrs by scintillation counter
[28] = system: Plasmodium falciparum; assay: Antimalarial activity against Plasmodium falciparum FCM29 harboring Ppcrt M74I, N75E, K76T, A220S, Q271E, N326S and I356T mutant gene, Pmdr1 N86Y mutant gene and Pfmrp H191Y and S437A mutant gene assessed as incorporation of [3H]hypoxanthine after 48 hrs by scintillation counter
[29] = system: Plasmodium falciparum; assay: Antimalarial activity against Plasmodium falciparum PA harboring Ppcrt M74I, N75E, K76T, A220S, Q271E, N326S and I356T mutant gene, Pmdr1 N86Y mutant gene and Pfmrp H191Y and S437A mutant gene assessed as incorporation of [3H]hypoxanthine after 48 hrs by scintillation counter
[30] = system: Plasmodium falciparum; assay: Antimalarial activity against Plasmodium falciparum IMT 8425 harboring Ppcrt I371R mutant gene and Pfnhe-1 ms4760 microsatellite mutant assessed as incorporation of [3H]hypoxanthine after 48 hrs by scintillation counter
[31] = system: Plasmodium falciparum; assay: Antimalarial activity against Plasmodium falciparum 106/1 harboring Ppcrt M74I, N75E, K76T, A220S, Q271E, N326S and I356T mutant gene, Pmdr1 N86Y mutant gene and Pfmrp H191Y and S437A mutant gene assessed as incorporation of [3H]hypoxanthine after 48 hrs by scintillation counter
[32] = system: Plasmodium falciparum; assay: Antimalarial activity against Plasmodium falciparum D6 harboring Ppcrt I371R mutant gene assessed as incorporation of [3H]hypoxanthine after 48 hrs by scintillation counter
[33] = system: Plasmodium falciparum; assay: Antimalarial activity against Plasmodium falciparum IMT 31 harboring Ppcrt I371R mutant gene assessed as incorporation of [3H]hypoxanthine after 48 hrs by scintillation counter
[34] = system: Plasmodium falciparum; assay: Antimalarial activity against Plasmodium falciparum IMT 10500 harboring Pfcrt Q271E mutant gene and Ppcrt I371R mutant gene and Pfnhe-1 ms4760 microsatellite mutant assessed as incorporation of [3H]hypoxanthine after 48 hrs by scintillation counter
[35] = system: Plasmodium falciparum; assay: Antimalarial activity against Plasmodium falciparum 3D7 harboring Ppcrt I371R mutant gene and Pfnhe-1 ms4760 microsatellite mutant assessed as incorporation of [3H]hypoxanthine after 48 hrs by scintillation counter
[36] = system: Plasmodium falciparum; assay: Antimalarial activity against Plasmodium falciparum IMT 9881 harboring Ppcrt I371R mutant gene assessed as incorporation of [3H]hypoxanthine after 48 hrs by scintillation counter
[37] = system: Plasmodium falciparum; assay: Antimalarial activity against Plasmodium falciparum W2 harboring Ppcrt M74I, N75E, K76T, A220S, Q271E, N326S and I356T mutant gene, Pmdr1 N86Y mutant gene and Pfmrp H191Y and S437A mutant gene assessed as incorporation of [[3H]hypoxanthine after 48 hrs by scintillation counter
[38] = system: Plasmodium falciparum; assay: Antimalarial activity against Plasmodium falciparum IMT K14 harboring Ppcrt M74I, N75E, K76T, A220S, Q271E, N326S mutant gene, Pmdr1 Y184F, S1034C, N1042D, D1246Y mutant gene and Pfmrp H191Y and S437A mutant gene assessed as incorporation of [3H]hypoxanthine after 48 hrs by scintillation counter
[39] = system: Plasmodium falciparum; assay: Antimalarial activity against Plasmodium falciparum IMT 16332 harboring Ppcrt M74I, N75E, K76T, A220S, Q271E mutant gene, Pmdr1 N86Y mutant gene assessed as incorporation of [3H]hypoxanthine after 48 hrs by scintillation counter
[40] = system: Plasmodium falciparum; assay: Antimalarial activity against Plasmodium falciparum IMT Vol harboring Ppcrt M74I, N75E, K76T, A220S, Q271E, N326S mutant gene, Pmdr1 N86Y mutant gene and Pfmrp H191Y and S437A mutant gene assessed as incorporation of [3H] hypoxanthine after 48 hrs by scintillation counter
[41] = system: Plasmodium falciparum; assay: Antimalarial activity against Plasmodium falciparum IMT L1 harboring Ppcrt M74I, N75E, K76T, A220S, Q271E mutant gene, Pmdr1 N86Y mutant gene and Pfmrp H191Y and S437A mutant gene assessed as incorporation of [3H]hypoxanthine after 48 hrs by scintillation counter
[42] = system: Plasmodium falciparum; assay: Antimalarial activity against Plasmodium falciparum IMT K4 harboring Ppcrt M74I, N75E, K76T, A220S, Q271E, N326S mutant gene, Pmdr1 S1034C, N1042D mutant gene and Pfmrp H191Y and S437A mutant gene assessed as incorporation of [3H]hypoxanthine after 48 hrs by scintillation counter
[43] = system: Plasmodium falciparum; assay: Antimalarial activity against Plasmodium falciparum IMT K2 harboring Ppcrt M74I, N75E, K76T, A220S, Q271E, N326S mutant gene, Pmdr1 S1034C, N1042D mutant gene and Pfmrp H191Y and S437A mutant gene assessed as incorporation of [3H]hypoxanthine after 48 hrs by scintillation counter

Measured: IC50

O=C1C(O)=C([C@H]2CC[C@H](c3ccc(Cl)cc3)CC2)C(=O)c2ccccc21 [ATOVAQUONE]
0.0024 µM: [1] | [2] | [3] | [4] | [5] | [6] | [7] | [8] | [9] | [10] | [11] | [12] | [13] | [14] | [15] | [16] | [17] | [18] | [19] | [20] | [21] | [22]

CC(C)c1c(C(=O)Nc2ccccc2)c(-c2ccccc2)c(-c2ccc(F)cc2)n1CC[C@@H](O)C[C@@H](O)CC(=O)O [ATORVASTATIN]
8 µM: [31]
9.7 µM: [30]
5.8 µM: [25]
6 µM: [39]
10.8 µM: [27]
9 µM: [35]
2.5 µM: [1] | [2] | [3] | [4] | [5] | [6] | [7] | [8] | [9] | [10] | [11] | [12] | [13] | [14] | [15] | [16] | [17] | [18] | [19] | [20] | [21] | [22]
8.2 µM: [29] | [41]
6.7 µM: [34]
7.6 µM: [40]
8.7 µM: [24]
7.1 µM: [26]
8.6 µM: [43]
7.3 µM: [36]
5.9 µM: [28] | [32] | [33] | [37]
6.9 µM: [23] | [38] | [42]
